Here are results for 36 molecules from patent EP3928779A1 (Chugai Seiyaku Kabushiki Kaisha, priority 2014, dated 2016).

This assay has as its system rat small-intestinal brush border membrane vesicles. The experiment in a line: Inhibitory effect on 33PO4 uptake into rat small-intestinal brush border membrane vesicles (rapid filtration method). The settings on record: 33PO4 uptake into rat small-intestinal BBMVs; test compound 1 µM; reacted for 60 seconds. The class given is biochemical. Summed up: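 Uptake of ^33PO4 was measured by rapid filtration and liquid scintillation counting of filter-retained vesicles, after quenching with ice-cold 110 mM NaCl/1 mM KH2PO4/10 mM HEPES pH 7.5. Vesicles were brush border membranes from the upper small intestine of female Wistar rats aged 4–5 weeks.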
Turning to `CN1N(Cc2ccc(OCCCOCCCO)c(F)c2F)C(=O)C(C(=O)Nc2ccc(C(F)(F)F)cc2-c2cc(C(F)(F)F)ncn2)=C(O)C12CCCC2` [Example 398], the “Rate of uptake inhibition (%) (1 µM)” value stood at 34%.
In the case of `COCCN(C)CCNc1ccc(CN2C(=O)C(C(=O)Nc3ccc(C(F)(F)F)cc3-c3cc(C(F)(F)F)ncn3)=C(O)C3(CCCC3)N2C)c(F)c1F` [Example 417, 7-(2,3-Difluoro-4-((2-((2-methoxyethyl)(methyl)amino)ethyl)amino)benzyl)-10-hydroxy-6-methyl-8-oxo-N-(4-(trifluoromethyl)-2-(6-(trifluoromethyl)pyrimidin-4-yl)phenyl)-6,7-diazaspiro[4.5]dec-9-ene-9-carboxamide] it was 48%; in that of `C[C@]12CCCN1N(Cc1cccc(F)c1Cl)C(=O)C(C(=O)Nc1cc(F)c(Br)c(F)c1)=C2O` [Example 174], 87%; in that of `C[C@]12CCCN1N(Cc1ccc(F)c(Br)c1)C(=O)C(C(=O)Nc1ccc(C(F)(F)F)cc1-c1cc(C(F)(F)F)ncn1)=C2O` [Example 184], 79%.
Under `C[C@]12CCCN1N(CCCC(F)(F)F)C(=O)C(C(=O)Nc1ccc(C(F)(F)F)cc1-c1cc(C(F)(F)F)ncn1)=C2O` [Example 234, (4aR)-4-Hydroxy-4a-methyl-2-oxo-1-(4,4,4-trifluorobutyl)-N-[4-(trifluoromethyl)-2-[6-(trifluoromethyl)pyrimidin-4-yl]henyl]-6,7-dihydro-5H-pyrrolo[1,2-b]pyridazine-3-carboxamide] stands 73%; under `Cc1c(-c2cc(C(F)(F)F)ccc2NC(=O)C2=C(O)C3(CCCCC3)N(C)N(Cc3ccc(OCCN4CCOCC4)c(F)c3F)C2=O)ncnc1C(F)(F)F` [Example 296], 17%.
Under `CC(C)(C)[C@H]1C(O)=C(C(=O)Nc2cc(F)c(Br)c(F)c2)C(=O)N(Cc2cccc(F)c2F)N1CC(F)(F)F` [Example 248] stands 45%; under `C[C@]12CCCN1N(Cc1cccc(Cl)c1F)C(=O)C(C(=O)Nc1ccc(C(F)(F)F)cc1-c1cc(C(F)(F)F)ncn1)=C2O` [Example 209], 76%.
Take `C[C@]12CCCN1N(Cc1cccc(F)c1F)C(=O)C(C(=O)Nc1ccc(C(F)(F)F)cc1)=C2O` [Example 89]: the “Rate of uptake inhibition (%) (1 µM)” value is listed as 67%.
For the molecule `CN1N(Cc2cccc(F)c2F)C(=O)C(C(=O)Nc2ccc(C(F)(F)F)cc2-c2ccc(C(F)(F)F)nc2)=C(O)C12CCC2` [Example 301], the “Rate of uptake inhibition (%) (1 µM)” value was determined as 79%.
In the case of `CN1N(Cc2ccc(OCCN3CCOCC3(C)C)c(F)c2F)C(=O)C(C(=O)Nc2ccc(C(F)(F)F)cc2-c2cc(C(F)(F)F)ncn2)=C(O)C12CCCC2` [Example 371] it was 38%.
In the case of `COC(=O)c1cccc(CN2C(=O)C(C(=O)Nc3ccc(C(F)(F)F)cc3-c3cc(C(F)(F)F)ncn3)=C(O)[C@@]3(C)CCCN23)c1` [Example 183] it was 82%; in that of `CC1(C)C(O)=C(C(=O)Nc2ccc(C(F)(F)F)cc2-c2cc(C(F)(F)F)ncn2)C(=O)N(Cc2cccc(F)c2F)N1c1ccccc1` [Example 299], 45%; in that of `C[C@]12CCCN1N(Cc1ccc(OC[C@H]3CCCO3)c(F)c1F)C(=O)C(C(=O)Nc1ccc(C(F)(F)F)cc1-c1ccc(C(F)(F)F)nc1)=C2O` [Example 160], 77%.
Under `C[C@]12CCCN1N(Cc1ccc(F)cc1)C(=O)C(C(=O)Nc1ccc(C(F)(F)F)cc1-c1cc(C(F)(F)F)ncn1)=C2O` [Example 208] stands 90%; under `COc1cccc(-c2cc(C(F)(F)F)ccc2NC(=O)C2=C(O)[C@@]3(C)CCCN3N(Cc3ccc(C#CCCCCO)c(F)c3F)C2=O)c1OC` [Example 135], 90%.
Take `CN(CCOc1ccc(CN2C(=O)C(C(=O)Nc3ccc(C(F)(F)F)cc3-c3cc(C(F)(F)F)ncn3)=C(O)C3(CCCC3)N2C)c(F)c1F)C1CCOCC1` [Example 365]: the “Rate of uptake inhibition (%) (1 µM)” value is listed as 34%.
In the case of `C[C@]12CCCN1N(Cc1ccccc1F)C(=O)C(C(=O)Nc1ccc(C(F)(F)F)cc1-c1cc(C(F)(F)F)ncn1)=C2O` [Example 207] it was 73%.
As to `C[C@]12CCCN1N(Cc1ccc(OCCN3CCOCC3)c(Cl)c1)C(=O)C(C(=O)Nc1ccc(C(F)(F)F)cc1-c1ccc(C(F)(F)F)nc1)=C2O` [Example 149, (4aR)-1-[[3-Chloro-4-(2-morpholin-4-ylethoxy)phepyl]methyl]-4-hydroxy-4a-methyl-2-oxo-N-[4-(trifluoromethyl)-2-[6-(trifluoromethyl)pyridin-3-yl]phenyl]-6,7-dihydro-5H-pyrrolo[1,2-b]pyridazine-3-carboxamide], the “Rate of uptake inhibition (%) (1 µM)” value amounted to 80%.
For `CN1N(Cc2cccc(F)c2F)C(=O)C(C(=O)Nc2ccc(Br)c(C(F)(F)F)n2)=C(O)C12CCC2` [Example 258], the “Rate of uptake inhibition (%) (1 µM)” value is listed as 87%.
Under `CN(C[C@H](O)[C@@H](O)[C@H](O)[C@H](O)CO)C(=O)CCOCCOCCOCCOc1ccc(CN2C(=O)C(C(=O)Nc3ccc(C(F)(F)F)cc3-c3cc(C(F)(F)F)ncn3)=C(O)C3(CCCC3)N2C)c(F)c1F` [Example 423] stands 5%.
Under `C[C@]12CCCN1N(Cc1c(F)cc(C#CCN3CCOCC3)cc1F)C(=O)C(C(=O)Nc1ccc(C(F)(F)F)cc1-c1ccc(C(F)(F)F)nc1)=C2O` [Example 132] stands 71%; under `CC(C)[C@@H]1C(O)=C(C(=O)Nc2ccc(Cl)cc2-c2cc(C(F)(F)F)ncn2)C(=O)N(Cc2cccc(F)c2F)N1C` [Example 250], 52%.
`C[C@]12CCCN1N(Cc1ccc(C#N)cc1)C(=O)C(C(=O)Nc1cc(F)c(Br)c(F)c1)=C2O` [Example 222]: the “Rate of uptake inhibition (%) (1 µM)” value is 97%.
In the case of `C[C@]12CCCN1N(Cc1cc(F)c(F)cc1F)C(=O)C(C(=O)Nc1cc(F)c(Br)c(F)c1)=C2O` [Example 194] it was 80%; in that of `C[C@]12CCCN1N(Cc1cccc(C#N)c1)C(=O)C(C(=O)Nc1ccc(C(F)(F)F)cc1-c1cc(C(F)(F)F)ncn1)=C2O` [Example 179], 83%; in that of “(4aR)-1-[(2,3-Difluorophenyl)methyl]-4a-ethyl-4-hydroxy- N-[5-methyl-2-(trifluoromethyl)furan-3-yl]-2-oxo-6,7-dihydro-5H-pyrrolo[1,2-b]pyridazine-3-carboxamide [Example 10]”, 37%.
In the case of `C[C@]12CCCN1N(Cc1c(Cl)cc(OCCN3CCOCC3)cc1Cl)C(=O)C(C(=O)Nc1cnc(C(F)(F)F)nc1-c1ccc(C(F)(F)F)nc1)=C2O.Cl` [Example 146, (4aR)-1-[[2,6-Dichloro-4-(2-morpholin-4-ylethoxy)phenyl]methyl]-4-hydroxy-4a-methyl-2-oxo-N-[2-(trifluoromethyl)-4-[6-(trifluoromethyl)pyridin-3-yl]pyrimidin-5-yl]-6,7-dihyvdro-5H-pyrrolo[1,2-b]pyridazine-3-carboxamide hydrochloride] it was 71%; in that of `COCCN(C)CCOc1c(I)cc(CN2C(=O)C(C(=O)Nc3ccc(C(F)(F)F)cc3-c3cc(C(F)(F)F)ncn3)=C(O)C3(CCCC3)N2C)c(F)c1F` [Example 437, 7-[[2,3-Difluoro-5-iodo-4-[2-[2-methoxyethyl(methyl)amino]ethoxy]phenyl]methyl]-10-hydroxy-6-methyl-8-oxo-N-[4-(trifluoromethyl)-2-[6-(trifluoromethyl)pyrimidin-4-yl]phenyl]-6,7-diazaspiro[4.5]dec-9-ene-9-carboxamide], 45%; in that of `C[C@]12CCCN1N(Cc1cccc(F)c1F)C(=O)C(C(=O)Nc1ccc(C(F)(F)F)cc1-c1cnc(Cl)nc1)=C2O` [Example 67], 91%.
In the case of `CN(C[C@H](O)[C@@H](O)[C@H](O)[C@H](O)CO)C(=O)COCCOCCOCCOCCOc1ccc(CN2C(=O)C(C(=O)Nc3ccc(C(F)(F)F)cc3-c3cc(C(F)(F)F)ncn3)=C(O)C3(CCCC3)N2C)c(F)c1F` [Example 441, 7-[[2,3-Difluoro-4-[2-[2-[2-[2-[2-[methyl-[(2S,3R,4R,5R)-2,3,4,5,6-pentahydroxyhexyl]amino]-2-oxoethoxy]ethoxy]ethoxy]ethoxy]ethoxy]phenyl]methyl]-10-hydroxy-6-methyl-8-oxo-N-[4-(trifluoromethyl)-2-[6-(trifluoromethyl)pyrimidin-4-yl]phenyl]-6,7-diazaspiro[4.5]dec-9-ene-9-carboxamide], the “Rate of uptake inhibition (%) (1 µM)” value was 22%.
For `CN1N(Cc2ccc(OCCN3C4CCC3COC4)c(F)c2F)C(=O)C(C(=O)Nc2ccc(C(F)(F)F)cc2-c2cc(C(F)(F)F)ncn2)=C(O)C12CCC2` [Example 340], the “Rate of uptake inhibition (%) (1 µM)” value came out at 63%.
In the case of `CCC1(CC)C(O)=C(C(=O)Nc2ccc(Cl)cc2-c2ccc(C(F)(F)F)nc2)C(=O)N(Cc2ccc(OCCN3CCOCC3)c(F)c2F)N1C` [Example 294] it was 40%; in that of `C[C@]12CCCN1N(Cc1c(F)cc(CCCCCCCOC[C@H](O)[C@@H](O)CO)cc1F)C(=O)C(C(=O)Nc1ccc(C(F)(F)F)cc1-c1ccc(C(F)(F)F)nc1)=C2O` [Example 125, (4aR)-1-[[2,6-Difluoro-4-[7-[(2S,3S)-2,3,4-trihydroxybutoxy]heptyl]phenyl]methyl]-4-hydroxy-4a-methyl-2-oxo-N-[4-(trifluoromethyl)-2-[6-(trifluoromethyl)pyridin-3-yl]phenyl]-6,7-dihydro-5H-pyrrolo[1,2-b]pyridazine-3-carboxamide], 76%; in that of `CN1CCN(CCOc2ccc(CN3C(=O)C(C(=O)Nc4ccc(C(F)(F)F)cc4-c4cc(C(F)(F)F)ncn4)=C(O)C4(CCC4)N3C)c(F)c2F)CC1=O` [Example 359], 37%.
On to `CC(CN1CCOCC1)Oc1ccc(CN2C(=O)C(C(=O)Nc3ccc(C(F)(F)F)cc3-c3cc(C(F)(F)F)ncn3)=C(O)C3(CCC3)N2C)c(F)c1F` (stereo not drawn) [Example 408], for which the “Rate of uptake inhibition (%) (1 µM)” value turned out to be 47%.
